The NIST ThermoML archive (doi:10.1016/j.jct.2013.01.005)

Legend:
[1] = 101.33 kPa, Liquid, Vibrating tube method
[2] = activity coefficient (dimensionless); of the first substance listed, at infinite dilution; xn = mol fraction of the nth substance listed; settings: 101 kPa, Liquid, Chromatography, x1 = 0

CCCCCC[N+]1(C)CCCCC1.O=S(=O)([N-]S(=O)(=O)C(F)(F)F)C(F)(F)F
[1]
Settings	mass density [kg/m3]
293.15 K	1329.53
298.15 K	1325.41
303.15 K	1321.3
308.15 K	1317.2
313.15 K	1313.11
318.15 K	1309.04
323.15 K	1304.98
328.15 K	1300.93
333.15 K	1296.9
338.15 K	1292.88
343.15 K	1288.87
348.15 K	1284.87
353.15 K	1280.88
358.15 K	1276.91

CCCCC[N+]1(C)CCCCC1.O=S(=O)([N-]S(=O)(=O)C(F)(F)F)C(F)(F)F
[1]
Settings	mass density [kg/m3]
293.15 K	1354.47
298.15 K	1350.13
303.15 K	1345.85
308.15 K	1341.7
313.15 K	1337.54
318.15 K	1333.36
323.15 K	1329.2
328.15 K	1325.05
333.15 K	1320.89
338.15 K	1316.75
343.15 K	1312.6
348.15 K	1308.46
353.15 K	1304.36
358.15 K	1300.26

CCCOCCC [dipropyl ether] + CCCCCC[N+]1(C)CCCCC1.O=S(=O)([N-]S(=O)(=O)C(F)(F)F)C(F)(F)F
[2]
Settings	activity coefficient
308.15 K	3.5
318.15 K	3.47
328.15 K	3.44
338.15 K	3.41
348.15 K	3.38
358.15 K	3.37

CCCOCCC [dipropyl ether] + CCCCC[N+]1(C)CCCCC1.O=S(=O)([N-]S(=O)(=O)C(F)(F)F)C(F)(F)F
[2]
Settings	activity coefficient
308.15 K	4.17
318.15 K	4.13
328.15 K	4.05
338.15 K	4.02
348.15 K	3.98
358.15 K	3.96

CCO [ethanol] + CCCCCC[N+]1(C)CCCCC1.O=S(=O)([N-]S(=O)(=O)C(F)(F)F)C(F)(F)F
[2]
Settings	activity coefficient
308.15 K	1.81
318.15 K	1.63
328.15 K	1.49
338.15 K	1.37
348.15 K	1.27
358.15 K	1.18

CCO [ethanol] + CCCCC[N+]1(C)CCCCC1.O=S(=O)([N-]S(=O)(=O)C(F)(F)F)C(F)(F)F
[2]
Settings	activity coefficient
308.15 K	1.79
318.15 K	1.58
328.15 K	1.46
338.15 K	1.35
348.15 K	1.27
358.15 K	1.18

CCc1ccccc1 [ethylbenzene] + CCCCCC[N+]1(C)CCCCC1.O=S(=O)([N-]S(=O)(=O)C(F)(F)F)C(F)(F)F
[2]
Settings	activity coefficient
308.15 K	0.864
318.15 K	0.894
328.15 K	0.909
338.15 K	0.934
348.15 K	0.957
358.15 K	0.969

CCc1ccccc1 [ethylbenzene] + CCCCC[N+]1(C)CCCCC1.O=S(=O)([N-]S(=O)(=O)C(F)(F)F)C(F)(F)F
[2]
Settings	activity coefficient
308.15 K	1.26
318.15 K	1.31
328.15 K	1.35
338.15 K	1.37
348.15 K	1.42
358.15 K	1.43

CCCCCCC [heptane] + CCCCCC[N+]1(C)CCCCC1.O=S(=O)([N-]S(=O)(=O)C(F)(F)F)C(F)(F)F
[2]
Settings	activity coefficient
308.15 K	10.2
318.15 K	9.81
328.15 K	9.38
338.15 K	8.99
348.15 K	8.68
358.15 K	8.2

CCCCCCC [heptane] + CCCCC[N+]1(C)CCCCC1.O=S(=O)([N-]S(=O)(=O)C(F)(F)F)C(F)(F)F
[2]
Settings	activity coefficient
308.15 K	13.6
318.15 K	12.4
328.15 K	11.8
338.15 K	11.3
348.15 K	10.8
358.15 K	10.4

C=CCCCC [hex-1-ene] + CCCCCC[N+]1(C)CCCCC1.O=S(=O)([N-]S(=O)(=O)C(F)(F)F)C(F)(F)F
[2]
Settings	activity coefficient
308.15 K	4.53
318.15 K	4.45
328.15 K	4.34
338.15 K	4.28
348.15 K	4.15
358.15 K	4.06

C=CCCCC [hex-1-ene] + CCCCC[N+]1(C)CCCCC1.O=S(=O)([N-]S(=O)(=O)C(F)(F)F)C(F)(F)F
[2]
Settings	activity coefficient
308.15 K	5.52
318.15 K	5.31
328.15 K	5.13
338.15 K	5
348.15 K	4.92
358.15 K	4.8

CCCCCC [hexane] + CCCCCC[N+]1(C)CCCCC1.O=S(=O)([N-]S(=O)(=O)C(F)(F)F)C(F)(F)F
[2]
Settings	activity coefficient
308.15 K	7.67
318.15 K	7.4
328.15 K	7.07
338.15 K	6.85
348.15 K	6.67
358.15 K	6.37

CCCCCC [hexane] + CCCCC[N+]1(C)CCCCC1.O=S(=O)([N-]S(=O)(=O)C(F)(F)F)C(F)(F)F
[2]
Settings	activity coefficient
308.15 K	9.9
318.15 K	9.5
328.15 K	8.9
338.15 K	8.45
348.15 K	8.19
358.15 K	7.92

CO [methanol] + CCCCCC[N+]1(C)CCCCC1.O=S(=O)([N-]S(=O)(=O)C(F)(F)F)C(F)(F)F
[2]
Settings	activity coefficient
308.15 K	1.51
318.15 K	1.37
328.15 K	1.26
338.15 K	1.16
348.15 K	1.08
358.15 K	0.995

CO [methanol] + CCCCC[N+]1(C)CCCCC1.O=S(=O)([N-]S(=O)(=O)C(F)(F)F)C(F)(F)F
[2]
Settings	activity coefficient
308.15 K	1.45
318.15 K	1.32
328.15 K	1.21
338.15 K	1.12
348.15 K	1.07
358.15 K	1

CC1CCCCC1 [methylcyclohexane] + CCCCCC[N+]1(C)CCCCC1.O=S(=O)([N-]S(=O)(=O)C(F)(F)F)C(F)(F)F
[2]
Settings	activity coefficient
308.15 K	6.24
318.15 K	6.05
328.15 K	5.83
338.15 K	5.59
348.15 K	5.4
358.15 K	5.2

CC1CCCCC1 [methylcyclohexane] + CCCCC[N+]1(C)CCCCC1.O=S(=O)([N-]S(=O)(=O)C(F)(F)F)C(F)(F)F
[2]
Settings	activity coefficient
308.15 K	7.8
318.15 K	7.49
328.15 K	7.16
338.15 K	6.87
348.15 K	6.64
358.15 K	6.42
